Assay results from patent US10954214B2 (Janssen Pharmaceutica NV, priority 2016, dated 2021).

Assays:
[1] = system: IL10 secretion by TMD8 ABC-DLBCL cells; assay: Human IL10 Mesoscale assay (TMD-8); format: cell-based; settings: TMD-8 cells, 24 h
Method: (§1) NFKB signaling regulates the secretion of multiple cytokines, including IL6 and IL10. Secretion of the cytokines IL6 and IL10 by TMD8 or OCI-LY3 ABC-DLBCL cells was measured using a mesoscale assay. Inhibition of NFKB signaling by MALT1 or BTK inhibitors results in a decrease of IL6/10 secretion.
(§2) TMD8 or OCI-LY3 cells were propagated in RPMI-1640 (Sigma Aldrich) supplemented with 10% fetal bovine serum (HyClone), 1 mM sodium pyruvate (Invitrogen), 2 mM L-glutamine (Sigma Aldrich) and 1% PenStrep (Sigma Aldrich). Cell passage number should not exceed 30. Cells should be kept between 0.5-2.5 million cells per mL during culturing and cells should be supplemented every 2-3 days with fresh 50 μM beta-mercaptoenthanol. No beta-mercaptoethanol was used during the mesoscale assay.
(§3) For the Mesoscale assay, 100,000 TMD8 or OCI-LY3 cells were seeded per well into black-colored 96-well plates with clear bottom (Corning #3904) and test compounds were added in 9 dilution steps (1:2) ranging from 15 μM to 58.6 nM (final DMSO concentration 0.3%). DMSO control wells were used to determine the maximum signal (High Control (HC)). Treatment with the BTK inhibitor RN486 in a dose range from 30 nM to 131 pM (9 dilutions of 1:2) served as a positive control for NFKB pathway inhibition and was used to determine the maximum inhibition (Low Control (LC)). Compounds and cells were incubated for 24 h at 37° C. and 5% CO2 (assay volume is 150 μL). After 24 h of incubation 50 μL of the supernatant was transferred to a MSD plate (V-Plex Proinflammation Panel 1 (human) kit, Mesoscale (MSD)) and incubated for 2 h with vigorous shaking (600 rpm) at room temperature. Following incubation, plates were washed 3× with PBS+0.05% Tween-20 and 25 μL detection antibody solution (IL6 & IL10 antibodies in diluent 3 (MSD)) was added per well followed by 2 h of incubation with vigorous shaking (600 rpm) at room temperature. After 3× washes with PBS+0.05% Tween-20, plates were incubated with 150 μL 2× Read Buffer T and read on SECTOR imager.

[2] = target: full-length MALT1 protein (Strep-MALT1(1-824)-His) (Homo sapiens (Human), UniProt Q9UDY8); assay: MALT1 Biochemical Protease Assay (Ac-LRSR-AMC substrate); settings: 10 nM FL MALT1, 200 μM Ac-LRSR-AMC, 4 h at RT; read-out: MALT1_Biochemical activity (Ac-LRSR-amc) IC50
Chain of full-length MALT1 protein (Strep-MALT1(1-824)-His) (Q9UDY8 whole entry): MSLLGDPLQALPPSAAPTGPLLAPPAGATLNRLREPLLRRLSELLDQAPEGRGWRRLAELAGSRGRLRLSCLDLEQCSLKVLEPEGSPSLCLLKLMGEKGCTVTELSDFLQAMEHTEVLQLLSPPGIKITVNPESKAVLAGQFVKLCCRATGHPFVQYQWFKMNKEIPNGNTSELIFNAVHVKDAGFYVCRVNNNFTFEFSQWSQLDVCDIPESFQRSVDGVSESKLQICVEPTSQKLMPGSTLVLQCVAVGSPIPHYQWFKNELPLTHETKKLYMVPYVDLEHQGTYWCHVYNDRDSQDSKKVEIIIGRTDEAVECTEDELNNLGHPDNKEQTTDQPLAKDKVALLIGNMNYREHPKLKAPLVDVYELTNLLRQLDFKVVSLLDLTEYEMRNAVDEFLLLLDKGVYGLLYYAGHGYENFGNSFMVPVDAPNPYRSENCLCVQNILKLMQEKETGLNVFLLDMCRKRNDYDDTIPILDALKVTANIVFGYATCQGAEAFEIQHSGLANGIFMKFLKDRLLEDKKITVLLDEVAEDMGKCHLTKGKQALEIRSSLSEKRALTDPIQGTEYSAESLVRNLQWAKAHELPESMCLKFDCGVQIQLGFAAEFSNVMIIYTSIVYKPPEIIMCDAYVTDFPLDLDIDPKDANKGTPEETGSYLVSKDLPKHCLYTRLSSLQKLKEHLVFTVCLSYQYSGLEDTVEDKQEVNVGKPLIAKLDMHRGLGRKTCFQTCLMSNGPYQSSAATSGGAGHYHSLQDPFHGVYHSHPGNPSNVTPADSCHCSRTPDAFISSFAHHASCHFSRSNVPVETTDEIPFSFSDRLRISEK
Method in brief: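 Full-length MALT1 pre-incubated with compounds (30 μM to 0.5 nM, 11 threefold steps) for 50 min at RT. After Ac-LRSR-AMC was added, the reaction ran 4 h at RT and AMC fluorescence was read. IC50 and Hill slope from curve fitting against no-enzyme and no-compound controls.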

[3] = system: IL6 secretion by TMD8 ABC-DLBCL cells; assay: Human IL6 Mesoscale assay (TMD-8); format: cell-based; settings: TMD-8 cells, 24 h
Method: as §1, §2, §3

Row | Molecule | IC50 ([1]; Homo sapiens, TMD8) | IC50 [2] | IC50 ([3]; Homo sapiens, TMD8) | IC50 [1] | IC50 [3]
1 | O=C(Nc1cnc(OC(F)F)c(Cl)c1)c1cnn(-c2cncc3ccccc23)c1C(F)(F)F [Cpd 106, N-(5-chloro-6-(difluoromethoxy)pyridin-3-yl)-1-(isoquinolin-4-yl)-5-(trifluoromethyl)-1H-pyrazole-4-carboxamide] | 617 nM | 447 nM | 1260 nM |  | 
2 | CS(=O)(=O)c1cc(NC(=O)c2cnn(-c3cccc4ncccc34)c2C(F)(F)F)ccc1-n1ccnn1 [Cpd 213, N-(3-(methylsulfonyl)-4-(1H-1,2,3-triazol-1-yl)phenyl)-1-(quinolin-5-yl)-5-(trifluoromethyl)-1H-pyrazole-4-carboxamide] | > 15100 nM | 10000 nM | > 15100 nM |  | 
3 | N#Cc1cc(NC(=O)c2cnn(-c3ccnc4ccncc34)c2C(F)(F)F)cnc1-n1nccn1 [Cpd 223, N-(5-cyano-6-(2H-1,2,3-triazol-2-yl)pyridin-3-yl)-1-(1,6-naphthyridin-4-yl)-5-(trifluoromethyl)-1H-pyrazole-4-carboxamide] | 1180 nM | 1700 nM | 759 nM |  | 
4 | N-(5-chloro-6-(4-methyl-2H-1,2,3-triazol-2-yl)pyridin-3-yl)-1-(quinolin-5-yl)-5-(trifluoromethyl)-1H-pyrazole-4-carboxamide [Cpd 304] |  | 62 nM |  | 3240 nM | 3310 nM
5 | O=C(O)c1cnn(-c2ccc(NC(=O)c3cnn(-c4cccc5ncccc45)c3C(F)(F)F)cc2Cl)n1 [Cpd 228, 2-(2-chloro-4-(1-(quinolin-5-yl)-5-(trifluoromethyl)-1H-pyrazole-4-carboxamido)phenyl)-2H-1,2,3-triazole-4-carboxylic acid] | 813 nM | 1120 nM | 692 nM |  | 
6 | COc1cc(NC(=O)c2cnn(-c3cccc4ncccc34)c2C(F)(F)F)cnc1-n1ccnn1 [Cpd 235, N-(5-methoxy-6-(1H-1,2,3-triazol-1-yl)pyridin-3-yl)-1-(quinolin-5-yl)-5-(trifluoromethyl)-1H-pyrazole-4-carboxamide] | 1120 nM | 776 nM | 708 nM |  | 
7 | CS(=O)(=O)c1cc(NC(=O)c2cnn(-c3cccc4ncccc34)c2C(F)(F)F)ccc1-n1nccn1 [Cpd 215, N-(3-(methylsulfonyl)-4-(2H-1,2,3-triazol-2-yl)phenyl)-1-(quinolin-5-yl)-5-(trifluoromethyl)-1H-pyrazole-4-carboxamide] | 2090 nM | 5750 nM | 12300 nM |  | 
8 | Cc1nc(-n2nccn2)c(Cl)cc1NC(=O)c1cnn(-c2cnc(C(N)=O)c3sccc23)c1C(F)(F)F [Cpd 393, 4-(4-((5-chloro-2-methyl-6-(2H-1,2,3-triazol-2-yl)pyridin-3-yl)carbamoyl)-5-(trifluoromethyl)-1H-pyrazol-1-yl)thieno[2,3-c]pyridine-7-carboxamide] | 126 nM | 12 nM | 245 nM |  | 
9 | Cc1cc2nccc(-n3ncc(C(=O)Nc4cnc(-n5nccn5)c(C#N)c4)c3C(F)(F)F)c2o1 [Cpd 151, N-(5-cyano-6-(2H-1,2,3-triazol-2-yl)pyridin-3-yl)-1-(2-methylfuro[3,2-b]pyridin-7-yl)-5-(trifluoromethyl)-1H-pyrazole-4-carboxamide] | 200 nM | 214 nM | 224 nM |  | 

Further lines, with some results ahead:

Row | IC50 ([1]; Homo sapiens, TMD8) | IC50 [2] | IC50 ([3]; Homo sapiens, TMD8) | Molecule | IC50 [1] | IC50 [3]
10 | > 302 nM | 26300 nM | > 302 nM | O=C(Nc1cncc(-n2nccn2)c1)c1cnn(-c2cccc3c(=O)[nH]ccc23)c1C(F)(F)F [Cpd 363, N-(5-(2H-1,2,3-triazol-2-yl)pyridin-3-yl)-1-(1-oxo-1,2-dihydroisoquinolin-5-yl)-5-(trifluoromethyl)-1H-pyrazole-4-carboxamide] |  | 
11 | 112 nM | 871 nM | 105 nM | O=C(Nc1cnc(-n2nccn2)c(Cl)c1)c1cnn(-c2cnc(C3CNC3)c3ccccc23)c1C(F)(F)F [Cpd 403, 1-(1-(azetidin-3-yl)isoquinolin-4-yl)-N-(5-chloro-6-(2H-1,2,3-triazol-2-yl)pyridin-3-yl)-5-(trifluoromethyl)-1H-pyrazole-4-carboxamide] |  | 
12 | 479 nM | 195 nM | 794 nM | O=C(Nc1cnc(-n2nccn2)c(Cl)c1)c1cnn(-c2ccc(F)c3cccnc23)c1C(F)(F)F [Cpd 261, N-(5-chloro-6-(2H-1,2,3-triazol-2-yl)pyridin-3-yl)-1-(5-fluoroquinolin-8-yl)-5-(trifluoromethyl)-1H-pyrazole-4-carboxamide] |  | 
13 | 200 nM | 76 nM | 224 nM | O=C(Nc1cnc(-n2nccn2)c(Cl)c1)c1cnn(-c2c[n+]([O-])cc3ccccc23)c1C(F)(F)F [Cpd 406, 4-(4-((5-chloro-6-(2H-1,2,3-triazol-2-yl)pyridin-3-yl)carbamoyl)-5-(trifluoromethyl)-1H-pyrazol-1-yl)isoquinoline 2-oxide] |  | 
14 | 15 nM | 501 nM | 21 nM | O=C(Nc1cnc(-n2nccn2)c(Cl)c1)c1cnn(-c2cnc(C3CCN3)c3ccccc23)c1C(F)(F)F (stereo not drawn) [Cpd 379, 1-(1-(azetidin-2-yl)isoquinolin-4-yl)-N-(5-chloro-6-(2H-1,2,3-triazol-2-yl)pyridin-3-yl)-5-(trifluoromethyl)-1H-pyrazole-4-carboxamide] |  | 
15 | 1180 nM | 1290 nM | 3470 nM | O=C(Nc1cnc(N2CCCC2=O)c(Cl)c1)c1cnn(-c2cncc3ccccc23)c1C(F)(F)F [Cpd 107, N-(5-chloro-6-(2-oxopyrrolidin-1-yl)pyridin-3-yl)-1-(isoquinolin-4-yl)-5-(trifluoromethyl)-1H-pyrazole-4-carboxamide] |  | 
16 | 132 nM | 56 nM | 331 nM | O=C(Nc1cnc(-n2nccn2)c(Cl)c1)c1cnn(-c2cc(C(F)F)nc3ccccc23)c1C(F)(F)F [Cpd 401, N-(5-chloro-6-(2H-1,2,3-triazol-2-yl)pyridin-3-yl)-1-(2-(difluoromethyl)quinolin-4-yl)-5-(trifluoromethyl)-1H-pyrazole-4-carboxamide] |  | 
17 | 1900 nM | 195 nM | > 15100 nM | O=C(Nc1cnc(-n2nccn2)c(Cl)c1)c1cnn(-c2c(F)ccc3nccn23)c1C(F)(F)F [Cpd 205, N-(5-chloro-6-(2H-1,2,3-triazol-2-yl)pyridin-3-yl)-1-(6-fluoroimidazo[1,2-a]pyridin-5-yl)-5-(trifluoromethyl)-1H-pyrazole-4-carboxamide] |  | 
18 | 93 nM | 1200 nM | 257 nM | Cn1ccc2c(-n3ncc(C(=O)Nc4cnc(-n5nccn5)c(Cl)c4)c3C(F)(F)F)cccc2c1=O [Cpd 226, N-(5-chloro-6-(2H-1,2,3-triazol-2-yl)pyridin-3-yl)-1-(2-methyl-1-oxo-1,2-dihydroisoquinolin-5-yl)-5-(trifluoromethyl)-1H-pyrazole-4-carboxamide] |  | 
19 | 85 nM | 178 nM | 200 nM | CC(F)(F)c1ncc(-n2ncc(C(=O)Nc3cnc(-n4nccn4)c(Cl)c3)c2C(F)(F)F)c2ccccc12 [Cpd 402, N-(5-chloro-6-(2H-1,2,3-triazol-2-yl)pyridin-3-yl)-1-(1-(1,1-difluoroethyl)isoquinolin-4-yl)-5-(trifluoromethyl)-1H-pyrazole-4-carboxamide] |  | 
